Measurements from patent publication US20190002942A1, “ANTIBIOTIC FIIRV 104/18 COMPLEX AND THE ISOLATED INDIVIDUAL FACTORS THEREOF” (Fondazione Istituto Insubrico di Ricerca per la Vita, priority 2015, published 2019).
In brackets after ≈: the same amount, converted by molar mass. Like-named read-outs stand apart in the source and are kept apart here. One block for each molecule: values may come before it.

Columns and labels:
L145 C. albicans = assay: MIC, broth microdilution (CLSI); format: cell-based, Candida albicans; conditions: Candida albicans
Method: (§1) Antimicrobial activity of the antibiotic FIIRV 104/18 complex is determined by the broth microdilution method according to the procedures published by the Clinical and Laboratory Standards Institute (CLSI), formerly the National Committee for Clinical Laboratory Standards (NCCLS) (document M07-A9). Inocula are: 2-5×10^5 CFU/mL for Gram positive and Gram negative bacteria; 10^4 CFU/mL for Candida albicans.
(§2) The media used are: cation adjusted Mueller Hinton broth (CAMHB) for Staphylococci, Enterococci, Moraxella catarrhalis, Escherichia coli; Todd Hewitt broth (THB) for Streptococci; RPMI 1640 Medium for C. albicans. The effect of 30% bovine serum is determined under the same experimental conditions.
(§3) Cultures are incubated at 35° C. in air. After 18-24 hours visual readings are performed and MICs determined. The MIC (Minimal Inhibitory Concentration) is defined as the lower concentration of antibiotic at which there is no visible growth. The strains used are clinical isolates or strains from American Type Culture Collection (ATCC). Individual factors of antibiotic FIIRV 104/18 are dissolved in DMSO to obtain a 1000 μg/mL stock solution, and subsequently diluted in water to obtain working solution.

[1] = tested on: L819 S. aureus Smith ATCC19636; assay: MIC, broth microdilution (CLSI); format: cell-based, Staphylococcus aureus; conditions: Staphylococcus aureus
Method: (§4) Inocula are: 2-5×10^5 CFU/mL for Gram positive and Gram negative bacteria; 10^4 CFU/mL for Candida albicans.
(§5) The effect of 30% bovine serum is determined under the same experimental conditions.
(§6) Cultures are incubated at 35° C. in air. After 18-24 hours visual readings are performed and MICs determined. The MIC (Minimal Inhibitory Concentration) is defined as the lower concentration of antibiotic at which there is no visible growth. The strains used are clinical isolates or strains from American Type Culture Collection (ATCC).

L2048 B. cenocepacia = assay: MIC, broth microdilution (CLSI); format: cell-based; conditions: Burkholderia cenocepacia
Method: as §1, §2, §3

[2] = tested on: Gram-positive susceptible, resistant and multi-resistant pathogenic bacteria; assay: Growth inhibition of Gram-positive bacteria (summary); format: cell-based; conditions: Gram positive bacteria: Staphylococci incl. MRSA and MR coagulase-negative, Streptococci, Enterococci incl. VanA
Method: as §1, §2, §3

L3294 M. catarrhalis = assay: MIC, broth microdilution (CLSI); format: cell-based; conditions: Moraxella catarrhalis
Method: as §4, §5, §6

L49 S. pyogenes C203 = assay: MIC, broth microdilution (CLSI); format: cell-based; conditions: Streptococcus pyogenes
Method: as §4, §5, §6

L44 S. pneumoniae = assay: MIC, broth microdilution (CLSI); format: cell-based; conditions: Streptococcus pneumoniae
Method: as §4, §5, §6

L47 E. coli, SKF 12140 = assay: MIC, broth microdilution (CLSI); format: cell-based; conditions: Escherichia coli
Method: as §4, §5, §6

L568 E. faecium = assay: MIC, broth microdilution (CLSI); format: cell-based; conditions: Enterococcus faecium
Method: as §4, §5, §6

L1577 S. epidermidis = assay: MIC, broth microdilution (CLSI); format: cell-based; conditions: Staphylococcus epidermidis
Method: as §4, §5, §6

L1400 S. aureus MRSA = assay: MIC, broth microdilution (CLSI); format: cell-based; conditions: Staphylococcus aureus
Method: as §4, §5, §6

L3030 A. baumannii = assay: MIC, broth microdilution (CLSI); format: cell-based; conditions: Acinetobacter baumannii
Method: as §4, §5, §6

L100 S. aureus ATCC 6538 = assay: MIC, broth microdilution (CLSI); format: cell-based; conditions: Staphylococcus aureus, ATCC6538
Method: as §4, §5, §6

L559 E. faecalis = assay: MIC, broth microdilution (CLSI); format: cell-based; conditions: Enterococcus faecalis
Method: as §4, §5, §6

L1730 S. haemolyticus = assay: MIC, broth microdilution (CLSI); format: cell-based; conditions: Staphylococcus haemolyticus
Method: as §4, §5, §6

[3] = tested on: L1729 S. haemolyticus MDR; assay: MIC, broth microdilution (CLSI); format: cell-based; conditions: Staphylococcus haemolyticus
Method: as §4, §5, §6

L560 E. faecalis VanA = assay: MIC, broth microdilution (CLSI); format: cell-based, Enterococcus faecalis; conditions: Enterococcus faecalis, L560 E. faecalis VanA
Method: as §4, §5, §6

L569 E. faecium VanA = assay: MIC, broth microdilution (CLSI); format: cell-based, Enterococcus faecium; conditions: Enterococcus faecium, L569 E. faecium VanA
Method: as §4, §5, §6

[4] = +30% SB (bovine serum), read-out: MIC

Structure (SMILES): COC(=O)c1c(C)cc2c(c1O)C1(O)C(=O)c3cc4c(c(O)c3C(=O)C1(OC)[C@H](O)C2)C(=O)C=C(NC1O[C@@H](C)[C@H](OC2C=CC(=O)C(C)O2)[C@@H](O)[C@H]1OC)C4=O (stereo partly drawn) [F793, (6R,6aS,14aR)-methyl 11-[(2S,3R,4R,5R,6S)-4-hydroxy-3-methoxy-6-methyl-5-{[(2S,6S)-6-methyl-5-oxo-5,6-dihydro-2H-pyran-2-yl]oxy}tetrahydro-2H-pyran-2-ylamino]-1,6,8,14a-tetrahydroxy-6a-methoxy-3-methyl-7,9,12,14-tetraoxo-5,6,6a,7,9,12,14,14a-octahydrobenzo[α]tetracene-2-carboxylate]
- MIC (L145 C. albicans): > 128 µg/mL
- MIC ([1]; ATCC19636, L819 S. aureus Smith ATCC19636, CAMHB): 0.5 µg/mL (≈ 0.63 µM)
- MIC ([1]; ATCC19636, L819 S. aureus Smith, +30% SB (bovine serum)): 4 µg/mL (≈ 5.04 µM)
- MIC (L2048 B. cenocepacia): 128 µg/mL (≈ 161 µM)
- antibacterial activity (in words) [2]: very high antibacterial activity
- MIC (L3294 M. catarrhalis): 1 µg/mL (≈ 1.26 µM)
- MIC (L49 S. pyogenes C203): 0.03 µg/mL (≈ 0.0378 µM)
- MIC (L44 S. pneumoniae): 0.06 µg/mL (≈ 0.0756 µM)
- MIC (L47 E. coli, SKF 12140): > 128 µg/mL
- MIC (L568 E. faecium): 1 µg/mL (≈ 1.26 µM)
- MIC (L1577 S. epidermidis): 0.25 µg/mL (≈ 0.315 µM)
- MIC (L1400 S. aureus MRSA; MRSA): 0.5 µg/mL (≈ 0.63 µM)
- MIC (L3030 A. baumannii): 128 µg/mL (≈ 161 µM)
- MIC (L100 S. aureus ATCC 6538): 1 µg/mL (≈ 1.26 µM)
- MIC (L559 E. faecalis): 0.5 µg/mL (≈ 0.63 µM)
- MIC (L1730 S. haemolyticus): 1 µg/mL (≈ 1.26 µM)
- MIC [3]: 1 µg/mL (≈ 1.26 µM)
- MIC (L560 E. faecalis VanA; +30% SB (bovine serum)): 2 µg/mL (≈ 2.52 µM)
- MIC (L560 E. faecalis VanA; CAMHB): 0.5 µg/mL (≈ 0.63 µM)
- MIC (L569 E. faecium VanA; +30% SB (bovine serum)): 16 µg/mL (≈ 20.2 µM)
- MIC (L569 E. faecium VanA; CAMHB): 1 µg/mL (≈ 1.26 µM)

- MIC (L145 C. albicans; L145 C. albicans, RPMI, inoculum 10^4 CFU/mL, read-out: MIC): > 128 µg/mL
- MIC ([1]; ATCC19636, L819 S. aureus Smith ATCC19636, CAMHB, read-out: MIC): 0.125 µg/mL (≈ 0.154 µM)
- MIC ([1]; ATCC19636, L819 S. aureus Smith, +30% SB (bovine serum), read-out: MIC): 1 µg/mL (≈ 1.23 µM)
- MIC (L2048 B. cenocepacia; L2048 B. cenocepacia, read-out: MIC): 64 µg/mL (≈ 78.6 µM)
- MIC (L3294 M. catarrhalis; L3294 M. catarrhalis, CAMHB, read-out: MIC): 0.5 µg/mL (≈ 0.614 µM)
- MIC (L49 S. pyogenes C203; L49 S. pyogenes C203, THB, read-out: MIC): 0 to 125 µg/mL
- MIC (L44 S. pneumoniae; L44 S. pneumoniae, THB, read-out: MIC): 0.125 µg/mL (≈ 0.154 µM)
- MIC (L47 E. coli, SKF 12140; L47 E. coli, SKF 12140, CAMHB, read-out: MIC): 128 µg/mL (≈ 157 µM)
- MIC (L568 E. faecium; L568 E. faecium, CAMHB, read-out: MIC): 4 µg/mL (≈ 4.92 µM)
- MIC (L1577 S. epidermidis; L1577 S. epidermidis, CAMHB, read-out: MIC): 0.5 µg/mL (≈ 0.614 µM)
- MIC (L1400 S. aureus MRSA; L1400 S. aureus MRSA, CAMHB, read-out: MIC): 0.5 µg/mL (≈ 0.614 µM)
- MIC (L3030 A. baumannii; L3030 A. baumannii, read-out: MIC): 128 µg/mL (≈ 157 µM)
- MIC (L100 S. aureus ATCC 6538; L100 S. aureus ATCC 6538, CAMHB, read-out: MIC): 0.125 µg/mL (≈ 0.154 µM)
- MIC (L559 E. faecalis; L559 E. faecalis, CAMHB, read-out: MIC): 4 µg/mL (≈ 4.92 µM)
- MIC (L560 E. faecalis VanA; [4]): 16 µg/mL (≈ 19.7 µM)
- MIC (L560 E. faecalis VanA; CAMHB, read-out: MIC): 4 µg/mL (≈ 4.92 µM)
- MIC (L569 E. faecium VanA; [4]): 16 µg/mL (≈ 19.7 µM)
- MIC (L569 E. faecium VanA; CAMHB, read-out: MIC): 4 µg/mL (≈ 4.92 µM)
Structure (SMILES): COC(=O)c1c(C)cc2c(c1O)[C@]1(O)C(=O)c3cc4c(c(O)c3C(=O)[C@]1(OC)[C@H](O)C2)C(=O)C=C(NC1O[C@@H](C)[C@H](OC2C[C@H](O)[C@H](O)C(C)O2)[C@@H](O)[C@H]1OC)C4=O (stereo partly drawn) [F813, (6R,6aS,14aR)-methyl 11-[(2S,3R,4R,5R,6S)-5-{[(2R,5S,6S)-4,5-dihydroxy-6-methyltetrahydro-2H-pyran-2-yl]oxy}-4-hydroxy-3-methoxy-6-methyltetrahydro-2H-pyran-2-ylamino]-1,6,8,14a-tetrahydroxy-6a-methoxy-3-methyl-7,9,12,14-tetraoxo-5,6,6a,7,9,12,14,14a-octahydrobenzo[α]tetracene-2-carboxylate]
- antibacterial activity (in words) [2]: very high antibacterial activity
- MIC (L1730 S. haemolyticus; L1730 S. haemolyticus, CAMHB, read-out: MIC): 0.5 µg/mL (≈ 0.614 µM)
- MIC ([3]; L1729 S. haemolyticus MDR, CAMHB, read-out: MIC): 0.5 µg/mL (≈ 0.614 µM)
